In the supplement of paper PMC10949913:
Several values for one entry are separate records, joined by “and”; a condition that tells them apart may be missing. Equal values may be shown once.

Assays:
Assay in all cases: area under concentration-response curve (viability) (AUC (a.u.)); higher = less active
Conditions in all cases: 48 h
CU-ACC1 = test system: CU-ACC1
How it was run: (§1)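 Three adrenocortical carcinoma cell lines were seeded at 500–1,000 cells/well in 5 µL medium in 1,536-well plates. 23 nL of each MIPE 5.0 library compound was added at 11 concentrations. After 48 h (per the protocol name), CellTiter-Glo was added for 15 minutes at room temperature and luminescence was read. Signals were normalised per plate to vehicle and empty-well controls. AC50 and area under the curve came from fitted concentration-response curves, keeping only inhibitory or non-responding curve classes.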

CU-ACC2 = test system: CU-ACC2
How it was run: as §1

NCI-H295R = test system: NCI-H295R
How it was run: as §1

Compound	area under concentration-response curve (CU-ACC1)	area under concentration-response curve (CU-ACC2)	area under concentration-response curve (NCI-H295R)
C[C@@H](C1CC[C@@]2(O)C3=CC(=O)[C@@H]4C[C@@H](O)[C@@H](O)C[C@]4(C)[C@H]3CC[C@]12C)[C@H](O)CCC(C)(C)O (stereo not given in full)	411	488	424
CC(=O)OCC(=O)[C@@]1(O)CC[C@H]2[C@@H]3CCC/4=C/C(=O)/C=C\[C@]4(C)[C@H]3[C@@H](O)C[C@]12C	460	471	506
CC(O)(C[S+](=O)([O-])c1ccc(F)cc1)C(=O)Nc1ccc(C#N)c(C(F)(F)F)c1 (stereo not given)	454	482	447
NC(=O)NO	503	590	511
COC1=CC=C(C=C1)C(=O)C2CCN(CC2)CC(=O)N(CC3CC3)C\C4=N\C5=C(\COCC5)C(=O)N4	495	564	520
C\C1=C(/C)C(=O)\C(=C(\C)C1=O)C(CCCCCC(O)=O)C2=CC=CC=C2 (stereo not given)	545	613	550
c1ccc(CNCc2ccc(CN3CCCNCCNCCCNCC3)cc2)nc1	514	601	542
COc1cc(Nc2ncc(F)c(Nc3ccc4c(n3)NC(=O)C(C)(C)O4)n2)cc(OC)c1OC	410	612	563
CC(=O)SCC(Cc1ccccc1)C(=O)NCC(=O)OCc1ccccc1 (stereo not given)	556	582	573
Cc1cc(SCc2sc(-c3ccc(C(F)(F)F)cc3)nc2C)ccc1OCC(=O)O	517	608	540
OC[C@H]1OCC(O1)[N@@]2C=CC(N)=NC2=O (stereo not given in full)	423	451	494
OC(Cn1cncn1)(Cn1cncn1)c1ccc(F)cc1F	466	546	514
COc1cc2ncn(-c3cc(OCc4ccccc4C(F)(F)F)c(C(N)=O)s3)c2cc1OC	515	606	506
O=C(c1ccc(C(=O)N2CCC(N3CCCC3)CC2)c(Nc2ccccc2)c1)N1CCC(N2CCCC2)CC1	493	601	556
C#CCN(C)[C@H](C)Cc1ccccc1	467	457	434
C#Cc1cccc(Nc2ncnc3cc(OCCOC)c(OCCO)cc23)c1	528	615	541
CN(CCO)C1CCN(c2ccc(Nc3ncc4c5ccnc(F)c5n(C5CCCC5)c4n3)nc2)CC1	467	658	579
Oc1ccc(C2CNCCc3c2cc(O)c(O)c3Cl)cc1 (stereo not given)	468	538	524

Compound	area under concentration-response curve (CU-ACC1)	area under concentration-response curve (CU-ACC2)	area under concentration-response curve (NCI-H295R)
C=C[C@H]1CN2CC[C@H]1C[C@H]2[C@H](O)c1ccnc2ccc(OC)cc12	501	602	521
NC12CC3CC(CC(C3)C1)C2	466	509	523
Cc1ncc([N+](=O)[O-])n1CC(C)O (stereo not given)	554	644	566
OCCC#Cc1nc(-c2ccc(F)cc2)c(-c2ccncc2)n1CCCc1ccccc1	513	536	475
O=C(CCCc1ccc2cccnc2n1)NCc1cc(-c2ccc(F)c(C(F)(F)F)c2)no1	512	615	491
CC(=O)NC(CS)C(=O)O (stereo not given)	413	466	457
CC(=O)OCC(CCn1cnc2cnc(N)nc21)COC(C)=O	565	596	570
CO[C@H]1/C=C/O[C@@]2(C)Oc3c(C)c(O)c4c(O)c(c(/C=N/N5CCN(C)CC5)c(O)c4c3C2=O)NC(=O)/C(C)=C\C=C\[C@H](C)[C@H](O)[C@@H](C)[C@@H](O)[C@@H](C)[C@H](OC(C)=O)[C@@H]1C	550	624	560
CN(CCOc1ccc(C[C@H](Nc2ccccc2C(=O)c2ccccc2)C(=O)O)cc1)c1ccccn1	429 and 437	413	388 and 454
COc1ccc2[nH]c(C(=O)N3CCC(CC(C)(C)O)CC3)cc2c1	484	609	572
Oc1cc2c(cc1O)C1c3ccc(O)c(O)c3OCC1(O)C2 (stereo not given)	546	542	527
CCCc1c(OCCCOc2ccc(OCC(=O)O)cc2)ccc(C(C)=O)c1O	518	607	548
CCCCNc1ncc2c(-c3ccc(CN4CCN(C)CC4)cc3)cn(C3CCC(O)CC3)c2n1 (stereo not given)	513	585	527
CN[C@@H]1[C@@H](O)[C@@H](O[C@@H]2[C@@H](O)[C@H](O[C@H]3O[C@H](CN)[C@@H](O)[C@H](O)[C@H]3O)[C@@H](N)C[C@H]2NC(=O)C(O)CN)OC[C@]1(C)O.O=S(=O)(O)O (stereo not given in full)	526	601	553
Cc1ccc(NC(=O)Nc2nnc(Sc3ncnc4cc(OCCCN5CCOCC5)ccc34)s2)cc1	521	583	511
C=CC(=O)Nc1cc(N2CCN(CC)CC2)ccc1Nc1cc(N(C)C(=O)Nc2c(Cl)c(OC)cc(OC)c2Cl)ncn1	537	566	495
Nc1ncnc2c1C(=O)N(c1ccc([C@H]3CC[C@H](CC(=O)O)CC3)cc1)CCO2	497	554	509
